# Reference: US6291673A, “Folic acid derivatives” (Purdue Research Foundation, priority 2000, dated 2001)
# Several values for one entry are separate records, joined by “and”; a condition that tells them apart may be missing. Equal entries are not always repeated.
# Tests used:
# [1] = Storage stability of pteroylazide 27; type: physicochemical
# Description: The known impurities include ~4% pteroic acid 10, ~2% of the aniline (PteNH2) apparently resulting from Curtius rearrangement of 27, ~2% of pteroylamide (PteCO--NH2 11); and <1% of folic acid 1. […] Unlike some acyl azides, pteroylazide 27 is quite stable; samples of the lemon-yellow solid may be stored in the dark in a freezer for at least 12 months without appreciable decomposition.
# carboxypeptidase G [2] = conditions: footnote c of Table 3; cited from earlier work
# carboxypeptidase G [3] = assay: Carboxypeptidase G enantiospecific hydrolysis of folic acid derivatives (HPLC of released pteroic acid); type: biochemical; conditions: Tris buffer with ZnCl2, 37° C., 2 h, pyrofolates and monoesters first hydrolysed in 0.25 M NaOH, error about ±2-3%
# Procedure: Since it had been previously observed that guanidine bases are capable of racemizing acylated glutamates (under more forcing conditions than were employed in the reactions listed in Table 2), the optical purity of the folic acid 1 (=25a) and several of its derivatives which had been produced was evaluated. […] In order to assay the pyrofolates 8 and 9 as well as the α- and γ-monoesters of folic acid L-33a and L-33c, an initial mild basic hydrolysis was required prior to the enzyme assay. […] Control reactions on synthetic D-1=25a and DL-1=25a (Table 3, Entries 3,4) serve to confirm the error limits of the enzymatic method at about ±2-3%.
# Determination of optical purity of folate derivatives listed in Table 3 using enzymatic hydrolysis with carboxypeptidase G:30:
# The folic acid derivative (~2.5 mg) was dissolved in 1 mL Tris buffer containing 20 μg ZnCl2 and 50 microunit enzyme (Sigma Chemical Company) was added. The solution was incubated at 37° C. for 2 h. A 20 μL sample was tested by HPLC on a […] MICROSORB C-18 reverse phase column (Eluent A: 5 mM phosphate buffer; Eluent B: acetonitrile; flow rate: 1 mL/min; gradient: 0-5 min, 5% B, 10-15, 25% B). Folic acid was eluted at 4.1 min, pteroic acid at 10.6 min, methotrexate at 10.8 min, and amino-N10-methyl pteroic acid at 11.9 min. Peak area was used as the standard for analysis.
# For folate derivatives, ~5 mg was first dissolved in 1 mL 0.25 M NaOH and incubated at room temperature for 1 h. Then the solution was acidified by 1 M HCl until precipitation. After centrifugation, washing, and drying, the ~2.5 mg yellow pellet was dissolved in 1 mL Tris buffer and reacted with enzyme under the conditions described above.
# [4] = biological target: T1, cell surface folate receptors (Homo sapiens, UniProt P15328); assay: Affinities of FITC-EDA-folate for cell surface folate receptors on KB cells; type: binding
# T1 construct: KB cells overexpressing the receptor; endogenous in cells; host or cells: KB cells
# T1 sequence (P15328 25-257): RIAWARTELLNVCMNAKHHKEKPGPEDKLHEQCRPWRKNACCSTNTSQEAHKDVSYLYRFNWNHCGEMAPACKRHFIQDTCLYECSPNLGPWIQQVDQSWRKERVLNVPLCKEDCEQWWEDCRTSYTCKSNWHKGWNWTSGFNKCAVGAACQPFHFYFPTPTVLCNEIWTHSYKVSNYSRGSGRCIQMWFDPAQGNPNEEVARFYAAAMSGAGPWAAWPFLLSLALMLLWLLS
# Procedure: To determine the affinities of EDA-folate for cell surface folate receptors, the α- and γ-isomers were labeled with the fluorophore FITC and incubated with KB cells overexpressing the receptor. […] The low level of non-specific uptake observed with both isomers was probably due to the hydrophobicity of the FITC conjugates.
SMILES,% Hydrolysis (carboxypeptidase G [3]),further results
"[N-]=[N+]=NC(=O)c1ccc(NCc2cnc3nc(N)[nH]c(=O)c3n2)cc1 [Compound 27, Pteroylazide]",–,"shelf life ([1]; room temperature, protected from light): at least a month; HPLC profile after exposure to light ([1]; samples exposed to light (darken appreciably)): not substantially degraded; storage time without appreciable decomposition ([1]; solid, in the dark in a freezer): at least 12 months"
CN(Cc1cnc2nc(N)nc(N)c2n1)c1ccc(C(=O)N[C@H](CCC(=O)O)C(=O)O)cc1 [Compound D-34d],–,hydrolysis by carboxypeptidase G (carboxypeptidase G [2]): not to be hydrolyzed
"Nc1nc2ncc(CNc3ccc(C(=O)N4C(=O)CCC4C(=O)O)cc3)nc2c(=O)[nH]1 (centres unmarked) [Compound 9, Pyrofolic acid]",51.7%,–
Nc1nc2ncc(CNc3ccc(C(=O)N[C@@H](CCC(=O)O)C(=O)NCCNC(=S)Nc4ccc5c(c4)C(=O)OC54c5ccc(O)cc5Oc5cc(O)ccc54)cc3)nc2c(=O)[nH]1 [α-isomer of FITC-EDA-folate],–,affinity for the cell surface receptors ([4]; KB cells overexpressing the receptor): virtually no affinity
"Nc1nc2ncc(CNc3ccc(C(=O)NC(CCC(=O)O)C(=O)O)cc3)nc2c(=O)[nH]1 (racemic) [D, L-25a]",52.3%,–
"Nc1nc2ncc(CN(C(=O)C(F)(F)F)c3ccc(C(=O)N4C(=O)CCC4C(=O)O)cc3)nc2c(=O)[nH]1 (centres unmarked) [Compound 8, N10-Trifluoroacetylpyrofolic acid]",49.5%,–
"CN(Cc1cnc2nc(N)nc(N)c2n1)c1ccc(C(=O)N[C@@H](CCC(=O)O)C(=O)O)cc1 [Compound L-34d, L-methotrexate, reference compound]",96.1% and 99.2%,–
Nc1nc(O)c2nc(CNc3ccc(C(=O)N[C@@H](CCC(=O)NCCNC(=S)Nc4ccc5c(c4)C(=O)OC54c5ccc(O)cc5Oc5cc(O)ccc54)C(=O)O)cc3)cnc2n1 [FITC-EDA-folate(γ)],–,"Kd ([4]; KB cells overexpressing the receptor, read-out: concentration required to reach 50% maximal binding): 1.6 nM"

# The next lines start with results.
% Hydrolysis (carboxypeptidase G [3]),SMILES,further results
96.8%,"COC(=O)CC[C@H](NC(=O)c1ccc(NCc2cnc3nc(N)[nH]c(=O)c3n2)cc1)C(=O)O [Compound L-33a, Tetramethylguanidinium (L)-methyl folate (γ)]",–
96.7%,"Nc1nc2ncc(CNc3ccc(C(=O)N[C@@H](CCC(=O)O)C(=O)O)cc3)nc2c(=O)[nH]1 [Compound L-1, Folic acid]","% Hydrolysis (carboxypeptidase G [3]; listed as L-25a): 98.4% and 98.6%; competition with the receptor binding of FITC-EDA-folate(γ) ([4]; excess folic acid in the incubation medium, KB cells): effectively competed"
85.9% and 96.7%,CC(C)=CCOC(=O)[C@H](CCC(=O)O)NC(=O)c1ccc(NCc2cnc3nc(N)[nH]c(=O)c3n2)cc1 [Compound L-33c],–
54.4%,"COC(=O)CCC(NC(=O)c1ccc(NCc2cnc3nc(N)[nH]c(=O)c3n2)cc1)C(=O)O (racemic) [DL-33a, (DL)-methyl folate (γ)]",–
3.0%,Nc1nc2ncc(CNc3ccc(C(=O)N[C@H](CCC(=O)O)C(=O)O)cc3)nc2c(=O)[nH]1 [Compound D-25a],–
